# According to patent US9856256B2, “Pyridino[1,2-A]pyrimidone analogue used as P13K inhibitor” (CHIA TAI TIANQING PHARMACEUTICAL GROUP CO., LTD., priority 2014, dated 2018):
# Tests used:
# [1] = test system: MCF-7 cells; assay: In vitro cell activity assay (MCF-7, insulin stimulation, ELISA-One); assay type: cell-based; settings: Homo sapiens, MCF7, compound 2 hours in serum-free media, then 10 μg/ml insulin 30 min
# Experimental: Experimental Steps and Method Comprise:
# 1. MCF-7 cells were seeded at 2,5000 cells per well in a 96 well tissue culture plate in a complete media containing 10%0/FBS.
# 3. The cells were treated with 10 μg/ml insulin in serum-free media for 30 min.
# 4. During waiting period, lysis solution was prepared as below:
# a) Enhancer Solution needs to be taken out from the refrigerator to be thawed.
# b) Concentrated lysis solution was prepared by diluting Enhancer Solution 10-fold in 5× Lysis Buffer.
# c) Lysis solution was prepared by diluting concentrated lysis solution 5-fold with ddH2O.
# 5. Any media were removed from wells and the wells were rinsed with PBS once quickly.
# 6. 50 μL of freshly prepared lysis solution were added into each well, with shaking at room temperature for 10 min.
# 7. After confirming that all cells get detached from wells, the lysis solution together with the cell debris was transferred to 1.5 ml tubes.
# 8. The tubes were vortexed several times to thoroughly mix the lysis solution and cells, and then, and then the mixture was centrifuged at 12,000 g for 10 min at 4° C.;
# 9. The desired number of ELISA-One microplate strips was determined. Unused strips were removed from frame and returned to storage pouch and seal. Wells for use in the assay were rinsed with 200 μL ddH2O to remove preservatives prior to use.
# 10. 50 μL of antibody mixture solution was added into each well. (Antibody mixture solution was prepared by mixing capture antibody reagent and detection antibody reagent equally, avoid vortexing)
# 11. 25 μL of lysate was added into each well of the ELISA-One microplate. The microplate was covered with adhesive seal and incubated for 1 hour at room temperature on a microplate shaker.
# 12. Each well was washed with 150 μL 1× wash buffer 3 times. After final wash, any remaining wash buffer was removed from wells. If necessary, leave microplate in 1× Wash Buffer for up to 30 min, until substrate mixture solution has been prepared.
# 13. The substrate mixture solution should be prepared when used, 100 μL of substrate mixture solution was added into each well, and then the microplate was sealed with tin foil and incubated at room temperature for 10 minutes on a microplate shaker.
# 14. 10 μL of stop solution was added into each well, and then mixed slightly (5-10 seconds) on a microplate shaker.
# 15. Corresponding ELISA-One filter set was installed to read the fluorescence signal intensity.
# [2] = target: PI3K (p110α) (Homo sapiens, UniProt P42336); assay: In vitro enzyme activity assay, PI3K (p110α) kinase, Method II (ADP-Glo assay); assay type: biochemical; design: purchased Millipore 14-602-K; settings: read-out: PI3K (p110α) enzyme activity_IC50
# Chain of PI3K (p110α) (P42336 whole entry): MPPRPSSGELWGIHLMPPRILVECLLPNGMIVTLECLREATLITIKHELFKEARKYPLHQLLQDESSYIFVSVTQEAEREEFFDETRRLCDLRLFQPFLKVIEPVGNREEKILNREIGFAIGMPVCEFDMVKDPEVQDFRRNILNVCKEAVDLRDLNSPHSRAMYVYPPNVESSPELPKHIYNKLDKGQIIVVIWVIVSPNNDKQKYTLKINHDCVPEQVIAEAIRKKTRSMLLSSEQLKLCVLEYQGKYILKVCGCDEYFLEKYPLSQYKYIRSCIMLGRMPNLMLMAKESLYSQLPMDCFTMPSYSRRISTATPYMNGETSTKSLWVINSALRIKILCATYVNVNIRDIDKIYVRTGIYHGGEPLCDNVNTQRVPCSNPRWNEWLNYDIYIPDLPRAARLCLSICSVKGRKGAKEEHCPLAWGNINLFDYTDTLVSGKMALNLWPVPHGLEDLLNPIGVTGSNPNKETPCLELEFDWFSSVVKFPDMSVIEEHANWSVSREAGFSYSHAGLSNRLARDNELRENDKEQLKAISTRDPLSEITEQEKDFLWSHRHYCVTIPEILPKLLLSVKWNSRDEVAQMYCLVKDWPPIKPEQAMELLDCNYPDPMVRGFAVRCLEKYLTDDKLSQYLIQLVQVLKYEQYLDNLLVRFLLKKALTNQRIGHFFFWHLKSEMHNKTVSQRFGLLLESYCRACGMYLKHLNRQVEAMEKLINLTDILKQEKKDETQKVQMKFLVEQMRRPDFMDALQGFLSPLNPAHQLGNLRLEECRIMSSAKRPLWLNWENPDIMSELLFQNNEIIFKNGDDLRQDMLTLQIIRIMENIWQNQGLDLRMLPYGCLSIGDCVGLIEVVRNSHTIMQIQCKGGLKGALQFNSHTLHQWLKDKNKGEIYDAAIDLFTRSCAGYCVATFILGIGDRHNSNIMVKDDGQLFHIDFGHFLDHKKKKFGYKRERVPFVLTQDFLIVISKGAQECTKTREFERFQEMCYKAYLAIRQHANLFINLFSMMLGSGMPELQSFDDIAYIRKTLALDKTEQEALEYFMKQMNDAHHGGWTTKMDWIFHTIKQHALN
# Chain of PI3K (p110α) (P27986 whole entry partner): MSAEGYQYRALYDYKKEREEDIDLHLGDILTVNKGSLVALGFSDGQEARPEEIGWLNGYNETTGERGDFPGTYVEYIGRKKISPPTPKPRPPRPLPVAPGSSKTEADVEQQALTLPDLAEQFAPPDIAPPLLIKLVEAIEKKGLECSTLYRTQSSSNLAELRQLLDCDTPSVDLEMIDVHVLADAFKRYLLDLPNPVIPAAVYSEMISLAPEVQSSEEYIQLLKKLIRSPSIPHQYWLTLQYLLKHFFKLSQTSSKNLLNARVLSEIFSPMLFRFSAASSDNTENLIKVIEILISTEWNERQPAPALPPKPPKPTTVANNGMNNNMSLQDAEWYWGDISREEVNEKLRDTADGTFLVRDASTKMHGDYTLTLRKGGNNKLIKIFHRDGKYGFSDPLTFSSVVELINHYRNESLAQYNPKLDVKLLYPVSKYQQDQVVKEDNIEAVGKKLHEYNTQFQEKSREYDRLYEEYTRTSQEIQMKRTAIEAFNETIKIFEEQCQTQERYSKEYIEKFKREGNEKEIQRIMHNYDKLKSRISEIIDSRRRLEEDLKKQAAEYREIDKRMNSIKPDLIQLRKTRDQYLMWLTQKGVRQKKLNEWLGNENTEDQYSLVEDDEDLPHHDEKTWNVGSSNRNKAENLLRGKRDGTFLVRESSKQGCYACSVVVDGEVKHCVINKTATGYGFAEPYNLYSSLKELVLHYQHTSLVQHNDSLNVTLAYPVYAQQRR
# Experimental: PI3K (p110α) kinase activities of the compounds in all the examples of the present invention were tested via the following two methods, respectively.
# Dilution of the Compound:
# The compound to be tested was diluted with a 3-fold concentration gradient, and 10 concentrations (from 10000 nM to 0.5 nM) were obtained in total.
# 50 nL of the compound was transferred to a reaction plate (PerkinElmer #6007299) and 3 μL of enzyme/substrate mixture (0.33 nM PI3Kalpha, Millipore #14-602-K/166.5 μM PIP2) was added. After 20 min incubation, 2 uL of ATP solution (100 uM) was added to initiate the reaction. After reacting for 2 hours at room temperature, 5 μL of ADP-Glo reagent was added to terminate the kinase reaction. Then the mixture was incubated at room temperature for 60 min to completely digest the remaining unreacted ATP, 10 uL of kinase detection reagent was added, and after 40 min incubation at room temperature, […] was readed on an Envision. PIP2, ATP, ADP-Glo and the kinase detection reagent were all from ADP-Glo kinase assay kit (Promega #V1792).
# IC50 was calculated using standard 4-parameter fit method (Model205, XL-fit, iDBS).
SMILES,IC50 [1],IC50 [2]
COc1ncc(-c2ccc3ncc(OCCN4CCN(C)CC4)c(=O)n3c2)cc1NS(=O)(=O)c1sc(C)nc1C [Compound 4],0.05 to 0.1 µM,≤ 0.001 µM
COc1ncc(-c2ccc3ncc(OCCN4CC5CC4CN5C)c(=O)n3c2)cc1NS(=O)(=O)c1sc(C)nc1C (stereo not shown) [Compound 5],> 0.25 µM,≤ 0.001 µM
"COc1ncc(-c2ccc3ncc(OCCN4CCCC4=O)c(=O)n3c2)cc1NS(=O)(=O)c1sc(C)nc1C [Compound 21, N-(2-Methoxy-5-(4-oxo-3-(2-(2-oxopyrrolidin-1-yl)ethoxy)-4H-pyrido[1,2-a]pyrimidin-7-yl)pyridin-3-yl)-2,4-dimethylthiazole-5-sulfonamide]",≤ 0.05 µM,≤ 0.001 µM
COc1ncc(-c2ccc3ncc(OCCNC(C)=O)c(=O)n3c2)cc1NS(=O)(=O)c1ccc(F)cc1Cl [Compound 22],0.1 to 0.25 µM,≤ 0.001 µM
COc1ncc(-c2ccc3ncc(OCCNS(C)(=O)=O)c(=O)n3c2)cc1NS(=O)(=O)c1ccc(F)cc1Cl [Compound 23],0.05 to 0.1 µM,≤ 0.001 µM
COc1ncc(-c2ccc3ncc(OCC4CN(C)C4)c(=O)n3c2)cc1NS(=O)(=O)c1ccc(F)cc1Cl [Compound 28],≤ 0.05 µM,–
COc1ncc(-c2ccc3ncc(OCC4(C)CNC4)c(=O)n3c2)cc1NS(=O)(=O)c1ccc(F)cc1Cl [Compound 29],> 0.25 µM,–
COc1ncc(-c2ccc3ncc(OC4CNC4)c(=O)n3c2)cc1NS(=O)(=O)c1ccc(F)cc1Cl [Compound 30],> 0.25 µM,–
COc1ncc(-c2ccc3ncc(OCC4CCCN4)c(=O)n3c2)cc1NS(=O)(=O)c1sc(C)nc1C (stereo not shown) [Compound 33],> 0.25 µM,≤ 0.001 µM
COc1ncc(-c2ccc3ncc(OCC4CCCN4C)c(=O)n3c2)cc1NS(=O)(=O)c1sc(C)nc1C (stereo not shown) [Compound 34],0.05 to 0.1 µM,≤ 0.001 µM
COc1ncc(-c2ccc3ncc(OCCn4ccc(C)n4)c(=O)n3c2)cc1NS(=O)(=O)c1ccc(F)cc1F [Compound 38],–,0.001 to 0.05 µM
COc1ncc(-c2ccc3ncc(OCCn4ccc(C(F)(F)F)n4)c(=O)n3c2)cc1NS(=O)(=O)c1ccc(F)cc1F [Compound 39],–,0.001 to 0.05 µM
COc1ncc(-c2ccc3ncc(OCCn4nccc4C)c(=O)n3c2)cc1NS(=O)(=O)c1ccc(F)cc1F [Compound 40],–,0.001 to 0.05 µM
"COc1ncc(-c2ccc3ncc(CN4CCOCC4)c(=O)n3c2)cc1NS(=O)(=O)c1sc(C)nc1C [Compound 51, N-(2-Methoxy-5-(3-(morpholinomethyl)-4-oxo-4H-pyrido[1,2-a]pyrimidin-7-yl)pyridin-3-yl)-2,4-dimethylthiazole-5-sulfonamide]",–,0.001 to 0.05 µM
COc1ncc(-c2ccc3ncc(CN(C)C)c(=O)n3c2)cc1NS(=O)(=O)c1sc(C)nc1C [Compound 52],–,0.001 to 0.05 µM
COc1ncc(-c2ccc3ncc(OCCN4CCOCC4)c(=O)n3c2)cc1NC(=O)Nc1sc(C)nc1C [Compound 54],–,> 0.2 µM
"COc1ncc(-c2ccc3ncc(OCCN4CCOCC4)c(=O)n3c2)cc1NC(=O)c1sc(C)nc1C [Compound 56, N-(2-Methoxy-5-(3-(2-morpholinoethoxy)-4-oxo-4H-pyrido[1,2-a]pyrimidin-7-yl)pyridin-3-yl)-2,4-dimethylthiazole-5-carboxamide]",–,> 0.2 µM
"COc1ncc(-c2ccc3ncc(OCCN4CCOCC4)c(=O)n3c2)cc1S(=O)(=O)Nc1sc(C)nc1C [Compound 58, N-(2,4-dimethylthiazol-5-yl)-2-methoxy-5-(3-(2-morpholinoethoxy)-4-oxo-4H-4H-pyrido[1,2-a]pyrimidin-7-yl)pyridine-3-sulfonamide]",–,> 0.2 µM
COc1ncc(-c2ccc3ncc(OCCN4CCS(=O)(=O)CC4)c(=O)n3c2)cc1NS(=O)(=O)c1sc(C)nc1C [Compound 61],–,≤ 0.001 µM
COc1ncc(-c2ccc3ncc(OCCN4CCOCC4)c(=O)n3c2)cc1NS(=O)(=O)c1ccc(F)c(F)c1 [Compound 62],0.1 to 0.25 µM,≤ 0.001 µM
COc1ncc(-c2ccc3ncc(OCCN4CCOCC4)c(=O)n3c2)cc1NS(=O)(=O)c1c(Cl)cccc1Cl [Compound 63],≤ 0.05 µM,≤ 0.001 µM
COc1ncc(-c2ccc3ncc(OCCN4CCOCC4)c(=O)n3c2)cc1NS(=O)(=O)c1c(F)cc(F)cc1Cl [Compound 64],–,≤ 0.001 µM
COc1ncc(-c2ccc3ncc(OCCN4CCOCC4=O)c(=O)n3c2)cc1NS(=O)(=O)c1ccc(F)cc1Cl [Compound 65],≤ 0.05 µM,≤ 0.001 µM

SMILES,IC50 [1],IC50 [2]
COc1ncc(-c2ccc3ncc(OCC(C)N4CCOCC4)c(=O)n3c2)cc1NS(=O)(=O)c1ccc(F)cc1Cl (stereo not shown) [Compound 66],≤ 0.05 µM,0.001 to 0.05 µM
COc1ncc(-c2ccc3ncc(OC(C)CN4CCOCC4)c(=O)n3c2)cc1NS(=O)(=O)c1ccc(F)cc1Cl (stereo not shown) [Compound 67],–,0.001 to 0.05 µM
COc1ncc(-c2ccc3ncc(OCCN4CCN(C)CC4)c(=O)n3c2)cc1NS(=O)(=O)c1ccc(F)cc1Cl [Compound 68],≤ 0.05 µM,≤ 0.001 µM
COc1ncc(-c2ccc3ncc(OCCN4CCN(CC(F)(F)F)CC4)c(=O)n3c2)cc1NS(=O)(=O)c1ccc(F)cc1Cl [Compound 69],≤ 0.05 µM,–
COc1ncc(-c2ccc3ncc(OCC(C)(C)N4CCOCC4)c(=O)n3c2)cc1NS(=O)(=O)c1ccc(F)cc1Cl [Compound 70],0.1 to 0.25 µM,0.001 to 0.05 µM
COc1ncc(-c2ccc3ncc(OCC4CCN(C)CC4)c(=O)n3c2)cc1NS(=O)(=O)c1ccc(F)cc1Cl [Compound 71],–,0.001 to 0.05 µM
COc1ncc(-c2ccc3ncc(OCCCN4CCN(C)CC4)c(=O)n3c2)cc1NS(=O)(=O)c1ccc(F)cc1Cl [Compound 72],≤ 0.05 µM,–
COc1ncc(-c2ccc3ncc(OC4CN(C)C4)c(=O)n3c2)cc1NS(=O)(=O)c1ccc(F)cc1Cl [Compound 73],–,0.001 to 0.05 µM
COc1ncc(-c2ccc3ncc(OC4CCN(C)CC4)c(=O)n3c2)cc1NS(=O)(=O)c1ccc(F)cc1Cl [Compound 74],–,0.001 to 0.05 µM
COc1ncc(-c2ccc3ncc(OCCN4CCNCC4)c(=O)n3c2)cc1NS(=O)(=O)c1ccc(F)cc1Cl [Compound 75],> 0.25 µM,≤ 0.001 µM
COc1ncc(-c2ccc3ncc(OCC4CCNCC4)c(=O)n3c2)cc1NS(=O)(=O)c1ccc(F)cc1Cl [Compound 76],> 0.25 µM,–
COc1ncc(-c2ccc3ncc(OCC4CCNC4)c(=O)n3c2)cc1NS(=O)(=O)c1ccc(F)cc1Cl (stereo not shown) [Compound 77],> 0.25 µM,0.001 to 0.05 µM
COc1ncc(-c2ccc3ncc(OCC4CCCN4)c(=O)n3c2)cc1NS(=O)(=O)c1ccc(F)cc1Cl (stereo not shown) [Compound 78],> 0.25 µM,0.001 to 0.05 µM
COc1ncc(-c2ccc3ncc(OCCN(CCO)CCO)c(=O)n3c2)cc1NS(=O)(=O)c1ccc(F)cc1Cl [Compound 80],–,≤ 0.001 µM
COc1ncc(-c2ccc3ncc(OCC4CC(F)(F)CN4)c(=O)n3c2)cc1NS(=O)(=O)c1ccc(F)cc1Cl (stereo not shown) [Compound 83],–,0.001 to 0.05 µM
COc1ncc(-c2ccc3ncc(OCCN(CCO)CC(F)(F)F)c(=O)n3c2)cc1NS(=O)(=O)c1ccc(F)cc1Cl [Compound 84],–,0.001 to 0.05 µM
COc1ncc(-c2ccc3ncc(OCCN4CCOCC4C(N)=O)c(=O)n3c2)cc1NS(=O)(=O)c1ccc(F)cc1Cl (stereo not shown) [Compound 86],–,≤ 0.001 µM
COc1ncc(-c2ccc3ncc(OCCN4C5CCC4COC5)c(=O)n3c2)cc1NS(=O)(=O)c1ccc(F)cc1Cl [Compound 87],–,≤ 0.001 µM
COc1ncc(-c2ccc3ncc(OCCN4C[C@@H](C)O[C@@H](C)C4)c(=O)n3c2)cc1NS(=O)(=O)c1ccc(F)cc1Cl [Compound 91],≤ 0.05 µM,–
COc1ncc(-c2ccc3ncc(OCCNCC(F)(F)F)c(=O)n3c2)cc1NS(=O)(=O)c1ccc(F)cc1Cl [Compound 92],–,≤ 0.001 µM
COc1ncc(-c2ccc3ncc(OCCN4CCN(S(C)(=O)=O)CC4)c(=O)n3c2)cc1NS(=O)(=O)c1ccc(F)cc1Cl [Compound 93],–,≤ 0.001 µM
COc1ncc(-c2ccc3ncc(OCCN4CCNC(=O)C4)c(=O)n3c2)cc1NS(=O)(=O)c1ccc(F)cc1Cl [Compound 94],> 0.25 µM,–
